Literature values as cited in patent publication US9271959B2, “Bicyclic tetrahydropyrrole compounds” (Laboratorios del Dr. Esteve, S.A., priority 2006, dated 2016).

What was measured:
sigma (σ-2) site = sigma (σ-2) site (Homo sapiens, UniProt Q5BJF2)
sigma 1 (σ-1) site = sigma 1 (σ-1) site (Homo sapiens, UniProt Q99720)
Sequence of sigma 1 (σ-1) site (Q99720 whole entry): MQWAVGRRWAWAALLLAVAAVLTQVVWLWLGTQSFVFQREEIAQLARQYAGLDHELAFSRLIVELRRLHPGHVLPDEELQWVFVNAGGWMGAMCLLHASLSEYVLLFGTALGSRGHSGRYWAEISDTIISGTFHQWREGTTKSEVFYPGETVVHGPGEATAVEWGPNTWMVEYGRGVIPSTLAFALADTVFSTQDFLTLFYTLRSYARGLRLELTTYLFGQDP

Sequence of sigma (σ-2) site (Q5BJF2 whole entry): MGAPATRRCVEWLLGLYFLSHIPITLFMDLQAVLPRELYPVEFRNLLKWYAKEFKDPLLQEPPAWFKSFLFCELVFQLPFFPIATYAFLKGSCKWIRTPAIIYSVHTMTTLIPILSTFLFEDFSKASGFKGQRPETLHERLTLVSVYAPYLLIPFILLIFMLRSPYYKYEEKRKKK

## SKF 10047
Sigma (σ-2) site
  affinity for the sigma (σ-2) site: micromolar affinity
Sigma 1 (σ-1) site
  affinity for the sigma 1 (σ-1) site: nanomolar affinity
